Holding throughout (format): functional
Experiment [1] can be described thus: DPPH radical scavenging activity at 1.0 mM by ESR.
The nature of experiment [2]: Galvinoxyl radical scavenging activity by ESR. More on the design: concentration or dose not given beside the values.
Experiment [3] can be described thus: Hydroxyl radical scavenging activity at 0.6 mM by ESR.
Experiment [4] is described as follows: Hydroxyl radical scavenging activity assessed as Trolox equivalent antioxidant capacity.
A short description of experiment [5]: Hydroxyl radical scavenging activity at 1.0 mM by ESR.
Experiment [6] can be described thus: DPPH radical scavenging activity at 2.0 mM by ESR. Background: The DPPH test is a chemical assay of radical scavenging.

Structures are written as SMILES.

On to `CC1C=CC(CO)c2c(O)c3c(c(O)c21)C(C)(C)C=CC3=O` (stereo unspecified), for which the Activity in experiment [1] stood at 4%; in experiment [2], 0%; in experiment [3] it was 47.5%; in experiment [5], 72%. Moreover, the Ratio in experiment [4] is 6.41.
Regarding `CC1C=CC(CO)c2c(O)c3c(c(O)c21)C(=O)C=CC3(C)C` (stereo unspecified), the Activity in experiment [6] stood at 93%; in experiment [1], 4%; in experiment [2], 0%; in experiment [3] it was 47.5%; in experiment [5], 71.3%. Further, the Ratio in experiment [4] stood at 5.1.
Consider `CC1(C)C=CC(=O)c2c(O)ccc(O)c21`, for which the Activity in experiment [1] was determined as 4%; in experiment [2] it was 0%; in experiment [3], 47.5%; in experiment [5] it was 50%. The Ratio in experiment [4] came out at 3.76.
On to `COc1ccc(O)c2c1C(=O)C=CC2(C)C`, for which the Activity in experiment [1] is 4%; in experiment [2] it was 0%; in experiment [3] it was 47.5%; in experiment [5], 48.2%. Further, the Ratio in experiment [4] worked out at 3.42.
Turning to `COc1ccc(O)c2c1C(C)(C)C=CC2=O`, the Activity came to 4% in experiment [1], 0% in experiment [2], 47.5% in experiment [3] and 47.5% in experiment [5]. In experiment [4], the Ratio worked out at 1.56.
Consider `CC1(C)C=CC(=O)c2c(O)c3c(c(O)c21)CC=CC3`, for which the Activity in experiment [1] amounted to 4%; in experiment [2], 0%; in experiment [3], 47.5%; in experiment [5], 68.2%. Moreover, in experiment [4], the Ratio is 5.86.
